# Where two headings read alike, the source gives them in different places.
# Key:
# [1] = for Bendamustine solubility: 5° C.
# Method: (§1) Samples were then refrigerated at 5° C. and inspected after 0, 3, 6 and 24 hours for particulates and/or precipitates.
# physchem = conditions: 5 °C
# Method: as §1
# [2] = Fisher esterification conditions: formation of t-butyl ester of bendamustine in TBA; assay type: physicochemical; conditions: heated in 60° C. TBA with HCl for 20 hours
# Method: Experiments were performed using traditional Fisher esterification reaction conditions required for the formation of t-butyl ester of bendamustine. Bendamustine was heated in 60° C. TBA with HCl for 20 hours.
# [3] = HPLC stability of bendamustine in TBA 20% (v/v) with and without mannitol over 24 hours; assay type: physicochemical
# Text: FIGS. 3 and 4 show the amount of degradation of bendamustine as measured by HP1 and dimer formation quantified by HPLC (as described herein). HP1 and dimer formation increased as the amount of alcohol concentration decreased regardless of the alcohol. This increase in impurities occurred with an anticipated time dependence (see Tables 3-9).
# [4] = reconstituted with 40 mL Sterile Water for Injection, cited from earlier work
# [5] = 10% (v/v) methanol in water with 25.5 mg/mL mannitol, aqueous with cosolvent or surfactant or cyclodextrin
# [6] = alcohol/water solution with mannitol 25.5 mg/mL, aqueous with cosolvent or surfactant or cyclodextrin
# [7] = alcohol/water solution with mannitol 25.5 mg/mL, aqueous with cosolvent or surfactant or cyclodextrin, thermodynamic from solid
# [8] = alcohol/water solution with mannitol, aqueous with cosolvent or surfactant or cyclodextrin
# [9] = alcohol/water solution with mannitol, aqueous with cosolvent or surfactant or cyclodextrin, thermodynamic from solid
# [10] = alcohol/water solution with mannitol, water, thermodynamic from solid
# [11] = water with mannitol 25.5 mg/mL, water, thermodynamic from solid
smiles,measurement,setting,value
"Cl.Cn1c(CCCC(=O)O)nc2cc(N(CCCl)CCCl)ccc21 [bendamustine, 4-{5-[Bis(2-chloroethyl)amino]-1-methyl-2-benzimidazolyl}butyric acid]",Bendamustine solubility,"[1]; 0% (Water Only), 6 Hours",Precipitate
same,Bendamustine solubility,"[1]; 0% (Water Only), 24 Hours",Precipitate
same,precipitation,"[1]; 15 mg/mL bendamustine, 5% and 10% ethanol and TBA without mannitol, over 24 hours",did not precipitate
same,Bendamustine solubility,"[1]; 1.9% Ethanol (v/v), 6 Hours",Precipitate
same,Bendamustine solubility,"[1]; 1.9% Ethanol (v/v), 24 Hours",Precipitate
same,Bendamustine solubility,"[1]; 5% Ethanol (v/v), 6 Hours",Precipitate
same,Bendamustine solubility,"[1]; 5% Ethanol (v/v), 24 Hours",Precipitate
same,Bendamustine solubility,"[1]; 5% Iso-propanol (v/v), 3 Hours",Precipitate
same,Bendamustine solubility,"[1]; 5% Iso-propanol (v/v), 6 Hours",Precipitate
same,Bendamustine solubility,"[1]; 5% Iso-propanol (v/v), 24 Hours",Precipitate
same,Bendamustine solubility,"[1]; 5% Methanol (v/v), 6 Hours",Precipitate
same,Bendamustine solubility,"[1]; 5% Methanol (v/v), 24 Hours",Precipitate
same,Bendamustine solubility,"[1]; 5% Tert-Butanol (v/v), 24 Hours",Precipitate
same,Bendamustine solubility,"[1]; 5% n-Propanol (v/v), 24 Hours",Precipitate
same,Bendamustine solubility,"[1]; 10% Ethanol (v/v), 24 Hours",Precipitate
same,Bendamustine solubility,"[1]; 10% Methanol (v/v), 24 Hours",Precipitate
same,Bendamustine solubility,"[1]; 10% Tert-Butanol (v/v), 24 Hours",Precipitate
same,Bendamustine solubility,"[1]; 20% Methanol (v/v), 24 Hours",Precipitate
same,Bendamustine solubility,"[1]; 20% n-Butanol (v/v), 3 Hours",2 layers
same,Bendamustine solubility,"[1]; 20% n-Butanol (v/v), 6 Hours",2 layers
same,Bendamustine solubility,"[1]; 20% n-Butanol (v/v), 24 Hours",2 layers
same,Bendamustine solubility,"[1]; 20% n-Butanol (v/v), Zero Time",2 layers
same,Bendamustine solubility,"[1]; 30% n-Butanol (v/v), 3 Hours",2 layers
same,Bendamustine solubility,"[1]; 30% n-Butanol (v/v), 6 Hours",2 layers
same,Bendamustine solubility,"[1]; 30% n-Butanol (v/v), 24 Hours",2 layers
same,Bendamustine solubility,"[1]; 30% n-Butanol (v/v), Zero Time",2 layers
same,solubility at 0 h,physchem; [5],> 15 mg/mL
same,solubility at 3 h,physchem; [5],> 15 mg/mL
same,solubility at 6 h,physchem; [5],> 15 mg/mL
same,solubility at 0 h,physchem; [6],> 15 mg/mL
same,solubility at 3 h,physchem; [6],> 15 mg/mL
same,solubility at 6 h,physchem; [6],> 15 mg/mL
same,solubility at 24 h,physchem; [6],> 15 mg/mL
same,solubility at 0 h,physchem; [7],> 15 mg/mL
same,solubility at 3 h,physchem; [7],> 15 mg/mL
same,solubility at 6 h,physchem; [7],> 15 mg/mL
same,solubility at 24 h,physchem; [7],> 15 mg/mL
same,solubility at 0 h,physchem; [8],> 15 mg/mL
same,solubility at 3 h,physchem; [8],> 15 mg/mL
same,solubility at 6 h,physchem; [8],> 15 mg/mL
same,solubility at 24 h,physchem; [8],> 15 mg/mL
same,solubility at 0 h,physchem; [9],> 15 mg/mL
same,solubility at 3 h,physchem; [9],> 15 mg/mL
same,solubility at 6 h,physchem; [9],> 15 mg/mL
same,solubility at 24 h,physchem; [9],> 15 mg/mL
same,solubility at 0 h,physchem; [10],> 15 mg/mL
same,solubility at 3 h,physchem; [10],> 15 mg/mL
same,solubility at 0 h,physchem; [11],> 15 mg/mL
same,solubility at 3 h,physchem; [11],> 15 mg/mL
same,formation of t-butyl ester,[2],No reaction was observed
same,Purity (% Area),"[3]; TBA 20% (v/v) with Mannitol, 0 hours, reverse phase HPLC",99.59 % Area
same,Purity (% Area),"[3]; TBA 20% (v/v) with Mannitol, 24 hours @ 5° C., reverse phase HPLC",99.35 % Area
same,Purity (% Area),"[3]; TBA 20% (v/v) without Mannitol, 0 hours, normal phase HPLC",100.0 % Area
same,Purity (% Area),"[3]; TBA 20% (v/v) without Mannitol, 24 hours @ 5° C., normal phase HPLC",98.80 % Area
same,stable period after reconstitution,[4]; room temperature storage,7 h
same,stable period after reconstitution,[4]; storage at 2-8° C.,140 h
same,saturation limit,"20% (v/v) TBA, 5° C.",17.2 mg/mL
same,concentration of saturated solution,"30% TBA/water, 0° C.",18000 µg/mL

# From US8895756B2, “Bendamustine pharmaceutical compositions” (priority 2005, dated 2014)
